Source: patent US12320800B2, “High-throughput automation of organoids for identifying therapeutic strategies” (UNIVERSITY OF WASHINGTON, priority 2018, dated 2025)
Entries after “also recorded” stand apart in the source; their conditions may differ.

Columns and labels:
cell stiffness = settings: cited from earlier work
[1] = system: PKD1−/− and PKD2−/− mutant organoids; test: Prophylactic effect of myosin activators on cyst formation in PKD organoids in suspension; type: cell-based, human
Text: (§1) Cyst formation. In adherent cultures (untreated), ‘cysts’ were identified as large, balloon-like, translucent structures that swayed in response to agitation. Flat rings and dilated tubules were not counted as cysts and occasionally appeared even in non-PKD controls. […] Wells were imaged using a Nikon TiE inverted wide-field microscope and cysts were quantified using ImageJ cell counter. To generate large cysts in suspension, adherent organoids were microdissected with a 23-gauge syringe needle from 24-well plates on an inverted phase-contrast microscope, and carefully transferred using a transfer pipette into a low-adhesion 6-well plate (Corning) containing 2 ml RB. The organoids were isolated on the twenty-first day of differentiation, before cysts formed. RB media was changed by gravity every three days, and cystogenesis was assessed at two weeks after replating.
EMD was efficient at rescuing cyst formation at the lowest dose tested (3 μM) and worked in both PKD1^−/− and PKD2^−/− mutant organoids.

myosin = settings: cited from earlier work; for effect: Table 5 listing
[2] = system: PKD organoids or isogenic controls; test: Cyst formation in adherent kidney organoids treated with forskolin or 8-Br-cAMP; type: cell-based, human
Text: as §1

[3] = system: Polycystic Kidney Disease (PKD) patients; settings: cited from earlier work
[4] = system: control organoids of identical genetic background that lacked PKD mutations; test: Blebbistatin cystogenesis in suspension culture, control organoids; type: cell-based, human; settings: 3 days after treatment
Protocol: Cyst generation. […] Forskolin (Sigma) was added to microwell plates during automated liquid handling on the 21st day after differentiation. Large swellings rapidly developed and grew to full size over 72 hours. Cysts were identified by comparing images with captured with high-content imaging prior to forskolin treatment, and after 72 hours. Screening of PKD cystogenesis was performed in duplicate in 96-well plates to provide sufficient space and numbers of organoids per well. Factors were plated at four different concentrations for seven days, and the organoids were scanned visually on a phase-contrast microscope for increased or decreased cyst formation. […] Cyst diameters were measured using NIS Elements imaging software (Nikon). […]

[5] = system: PKD organoids (mutations in polycystin-1); test: Small-scale screen of PKD cystogenesis modifiers in 96-well organoid plates; type: cell-based, human; set-up: dose or concentration left out as unconfirmed; settings: 7 days, blebbistatin at highest concentration
Protocol: Cyst generation. PKD1^−/− and PKD2^−/− hPSCs or isogenic controls were differentiated in microwell plates in adherent cultures. Forskolin (Sigma) was added to microwell plates during automated liquid handling on the 21st day after differentiation. Large swellings rapidly developed and grew to full size over 72 hours. Cysts were identified by comparing images with captured with high-content imaging prior to forskolin treatment, and after 72 hours. Screening of PKD cystogenesis was performed in duplicate in 96-well plates to provide sufficient space and numbers of organoids per well. Factors were plated at four different concentrations for seven days, and the organoids were scanned visually on a phase-contrast microscope for increased or decreased cyst formation. […] Cyst diameters were measured using NIS Elements imaging software (Nikon). […]

PKD organoids = test: Blebbistatin cystogenesis in suspension culture, PKD organoids; type: cell-based, human; set-up: time after which PKD organoids formed cysts: dose or concentration left out as unconfirmed
Protocol: Cyst generation. […] Forskolin (Sigma) was added to microwell plates during automated liquid handling on the 21st day after differentiation. Large swellings rapidly developed and grew to full size over 72 hours. Cysts were identified by comparing images with captured with high-content imaging prior to forskolin treatment, and after 72 hours. Screening of PKD cystogenesis was performed in duplicate in 96-well plates to provide sufficient space and numbers of organoids per well. Factors were plated at four different concentrations for seven days, and the organoids were scanned visually on a phase-contrast microscope for increased or decreased cyst formation. […] To test cystogenesis in suspension, adherent organoids were microdissected with a 23-gauge syringe needle from 24-well plates on an inverted phase-contrast microscope, and transferred into a low-adhesion 6-well plate (Corning) containing 2 mL RB or 2 mL RB with […] blebbistatin. Organoids were imaged daily on a Nikon Ti Inverted Widefield microscope for a period of 7 days. Cyst diameters were measured using NIS Elements imaging software (Nikon). Contiguous microscopic fields were collected using an automated stage and stitched together using NIS Elements software to generate large images of wells or plates.

[6] = system: endothelial cells (ECs) in kidney organoid cultures
Protocol: Kidney differentiation in microwell plates. hPSCs were dissociated with Accutase (Stem Cell Technologies) and plated onto microwell plates pre-coated with GelTrex in mTeSR1 supplemented with 10 mMRho-kinase inhibitor Y27632 (StemGent). The media was replaced with mTeSR1+1.5% GelTrex at 16 hours, 12 mMCHIR99021 in Advanced RPMI+Glutamax (Life Technologies) at 60 hours, and RB (Advanced RPMI+Glutamax+B27 Supplement, from Life Technologies) at 96 hours. […] RB was changed two days later and every three days thereafter. For experiments involving modulation of endothelial cell media was supplemented with VEGF165 (Peprotech, 12.5 to 200 ng/ml). Alternatively (Protocol B, FIG. 31A), the protocol described by Takasato et al. was adapted for adherent culture: undifferentiated hPSCs were plated overnight and treated the following morning with 8 mM CHIR99021 in APEL media (StemCell Technologies) for 48-72 hr, 30 ng/ml FGF9 (Peprotech)+1 mg/ml heparin (StemCellTechnologies) in APEL for 96 hr, and cultured thereafter in APEL, replaced every three days. Alternatively, to generate endothelial cells without kidney organoids, 100,000 hPSCs/cm2 were plated in mTeSR1+10 mM Y27632+1 mM CHIR99021, replaced with RPMI+B27 minus insulin+1.5% Geltrex+50 ng/mL Activin A (R&D) at 24 h, RPMI+B27 minus insulin+40 ng/mL BMP4 (Peprotech)+1 mL CHIR99021 at 61 h, and StemPro 34 (Thermo Fisher Scientific)+2 mM Glutamax+50 mg/mL ascorbic acid (Sigma)+10 ng/mL BMP4+5 ng/mL bFGF (Peprotech)+300 ng/mL VEGF165 at 85 h for a 72-hour incubation.
Immunohistochemistry. For confocal microscopy, kidney organoids were differentiated on 96-well No, 1.5 coverslip glass-bottom plates (Mat-Tek). To fix, an equal volume of 8% paraformaldehyde (Electron Microscopy Sciences) was added to the culture media (4% final concentration) for 15 minutes at room temperature. […] Fluorescence images were captured using an inverted Nikon epifluorescence Eclipse Ti or A1R confocal microscope. […]

[7] = scRNA-seq, in the presence of VEGF

Which “concentration range showing effects on cell stiffness” value (cell stiffness) does the source give for `CC(=O)c1ccc(O)cc1` [4-HAP, 4-hydroxyacetophenone] here?
The value was 5 to 50 µM.

What about the “effect on PKD organoid cysts” value [1] of the same compound?
The value was “less activity than EMD”.

And the “effect on cyst growth in PKD1−/− organoids” value ([1]; 300 μM (FIG. 22))?
Its value is “Positive effects”.

What about the effect (myosin) of the same compound?
The effect was “↑ myosin IIB, IIC”.

What about the “myosin II paralogs affected” value (myosin) of the same compound?
Its value is “specifically affect non-muscle myosins IIB and IIC, but not IIA”.

What does the source list for `Nc1ncnc2c1nc(Br)n2[C@@H]1O[C@@H]2COP(=O)(O)O[C@H]2[C@H]1O` [8-Br-cAMP]?
doses that did not produce cysts ([2]; PKD or control organoids, adherent): < 1 mM; swelling of adherent organoids into cyst-like structures ([2]; adherent cultures, added on day 21 of differentiation): induced swelling, although the effect was much less pronounced

Which effect (myosin) does the source give for `N#C/C(=C\c1cc(O)c(O)c(O)c1)C(=O)NCCCNC(=O)/C(C#N)=C/c1cc(O)c(O)c(O)c1` [Bis-T-23] here?
Its effect is “↑ actin polymerization”.

With `O=S(=O)(NCCNC/C=C/c1ccc(Br)cc1)c1cccc2cnccc12` [H-89] as the compound, how does the effect (myosin) read?
The effect was “↓ PKA”.

Which “effect on PKD cysts (shrinking / prevention)” value ([3]; PKD patients) does the source give for `Cc1ccccc1C(=O)Nc1ccc(C(=O)N2CCCC(O)c3cc(Cl)ccc32)c(C)c1` (stereo not shown) [Tolvaptan] here?
Its value is “does not shrink PKD cysts or prevent them from forming”.

And the “improve glomerular filtration rate (GFR)” value ([3]; PKD patients)?
The value was ~1.5 ml/min/yr.

What about the side effects ([3]; PKD patients) of the same compound?
The side effects was “can damage the liver; also recorded: frequent thirst and occasional severe hepatotoxicity”.

What about the “slow the growth of total kidney volume (TKV)” value ([3]; PKD patients) of the same compound?
The value was ~3 %/yr.

And the “effect on PKD, cyst growth” value ([3]; patients with severe disease)?
Its value is 3 % year.

With `CCCCC[C@H](O)/C=C/[C@@H]1[C@@H](C/C=C\CCCC(=O)O)[C@H]2CO[C@@H]1C2` [U46619] as the compound, how does the effect (myosin) read?
The effect was “↑ Rho-kinase”.

What does the source list for `Cc1ccc2c(c1)C(=O)C1(O)CCN(c3ccccc3)C1=N2` (stereo not shown) [blebbistatin]?
increase in rate of cystogenesis [4]: 10%; change in cyst formation [5]: significant increase in cyst formation; diameter and number of cysts (PKD organoids; 7 days of treatment, suspension): Both the diameter and number of cysts were increased; increase in rate of cystogenesis (PKD organoids; PKD organoids, suspension, 3 days after treatment): 40%; damage to organoids (PKD organoids; at this concentration and time frame): no damage to organoids was observed; time after which PKD organoids formed cysts (PKD organoids; suspension culture, blebbistatin): 24 h; cyst size after removal of blebbistatin (PKD organoids; washout after 7 days of treatment): cyst size declined

Which effect (myosin) does the source give for `CNc1ccc2oc(C[C@H]3O[C@@]4(CC[C@H]3C)O[C@H]([C@H](C)C(=O)c3ccc[nH]3)[C@H](C)C[C@H]4C)nc2c1C(=O)O` [calcium ionophore] here?
Its effect is “↑ calmodulin”.

With `CCCC[C@@H](C=O)NC(=O)[C@H](CC(C)C)NC(=O)OCc1ccccc1` [calpeptin] as the compound, how does the effect (myosin) read?
The effect was “↑ Rho-kinase”.

Which “effect on PKD organoid cysts” value [1] does the source give for `C[C@@H](O)[C@@H]1NC(=O)[C@H](CCCCN)NC(=O)[C@@H](Cc2c[nH]c3ccccc23)NC(=O)[C@H](Cc2ccccc2)NC(=O)[C@@H](NC(=O)[C@H](N)Cc2ccccc2)CSSC[C@@H](C(=O)N[C@H](CO)[C@@H](C)O)NC1=O` [octreotide] here?
Its value is “the same effect is not seem; also recorded: do not affect PKD cysts”.

With `COC(=O)N1CCN(Cc2cccc(NC(=O)Nc3ccc(C)nc3)c2F)CC1` [omecamtiv mercabil] as the compound, how does the “effect on PKD organoid cysts” value [1] read?
Its value is “the same effect is not seem; also recorded: do not affect PKD cysts”.

What about the “effect on cyst growth in PKD1−/− organoids” value ([1]; 20 μM, highest dose tried (FIG. 22)) of the same compound?
The value was “ineffective at the highest dose that was tried”.

What about the effect (myosin) of the same compound?
The effect was “↑ cardiac myosin S1”.

For VEGF, which “increase in ECs expressing CD31 and VE-cadherin” value ([6]; VEGF added during differentiation, immunofluorescence) is on record?
The value was “approximately 10 fold”.

And the “MCAM+ cells, share of all cells” value [6, 7]?
The value was 5%.

And the “MCAM+ cells, share of cells within the six kidney clusters” value [6, 7]?
Its value is 9.5%.
